The assay has as its target T1, RET (Homo sapiens, UniProt P07949).
T1 construct: expresses the amino acid region 658-1072 (Swiss prot No. Q9BTB0); made in house; host or cells: Sf9 insect cells (baculovirus, vector pFB-GSTX3)
T1 sequence (P07949 658-1072 isoform P07949-2): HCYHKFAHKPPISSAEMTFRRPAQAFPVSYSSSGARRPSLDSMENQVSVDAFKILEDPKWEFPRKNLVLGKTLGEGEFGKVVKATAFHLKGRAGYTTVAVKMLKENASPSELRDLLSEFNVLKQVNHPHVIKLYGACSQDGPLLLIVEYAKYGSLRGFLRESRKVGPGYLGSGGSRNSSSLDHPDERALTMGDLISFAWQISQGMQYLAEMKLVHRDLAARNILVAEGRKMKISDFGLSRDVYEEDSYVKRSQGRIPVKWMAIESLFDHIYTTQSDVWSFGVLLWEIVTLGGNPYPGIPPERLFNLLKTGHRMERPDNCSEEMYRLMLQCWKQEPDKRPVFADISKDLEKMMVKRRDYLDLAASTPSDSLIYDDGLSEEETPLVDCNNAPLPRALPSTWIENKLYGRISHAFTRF
Briefly: RET kinase inhibition (33P incorporation into poly(Glu,Tyr), GST-wtRET or GST-RET-Men2B). The class given is biochemical. On the procedure: RET kinase inhibition is determined as follows:
The coding sequence for the cytoplasmic domain of wtRET is amplified by PCR from a cDNA library using specific primers. RET-Men2B is generated through site-directed mutagenesis resulting in the M918T mutation. The amplified DNA fragments and the pFB-GSTX3 vector are made compatible for ligation by digestion with SalI and KpnI. Ligation of these DNA fragments results in the baculovirus donor plasmids […] and pFB-GX3-RET-Men2B, respectively.
Production of virus: The baculovirus donor plasmids containing the kinase domains are transfected into the DH10Bac cell line (GIBCO) and the transfected cells are plated on selective agar plates. Colonies without insertion of the fusion sequence into the viral genome (carried by the bacteria) are blue. Single, white colonies are picked and viral DNA (bacmid) is isolated from the bacteria by standard plasmid purification procedures. Sf9 cells or Sf21 cells (American Type Culture Collection) are then transfected in 25 cm^2 flasks with the viral DNA using Cellfectin reagent.
Protein expression in Sf9 cells: Virus-containing media is collected from the transfected cell culture and used for infection to increase its titer. Virus-containing media obtained after two rounds of infection is used for large-scale protein expression. For large-scale protein expression 100 cm^2 round tissue culture plates are seeded with 5×10^7 cells/plate and infected with 1 mL of virus-containing media (approximately 5 MOIs). After 3 days, the cells are scraped off the plate and centrifuged at 500 rpm for 5 minutes. Cell pellets from 10-20, 100 cm^2 plates are re-suspended in 50 mL of ice-cold lysis buffer (25 mM Tris-HCl, pH 7.5, 2 mM EDTA, 1% NP-40, 1 mM DTT, 1 mM PMSF). The cells are stirred on ice for 15 minutes and then centrifuged at 5,000 rpms for 20 minutes.
Purification of GST-tagged proteins: The centrifuged cell lysate is loaded onto a 2 mL glutathione-sepharose column (Pharmacia) and washed 3× with 10 mL of 25 mM Tris-HCl, pH 7.5, 2 mM EDTA, 1 mM DTT, 200 mM NaCl. The GST-tagged proteins are then eluted by 10 applications (1 mL each) of 25 mM Tris-HCl, pH 7.5, 10 mM reduced-glutathione, 100 mM NaCl, 1 mM DTT, 10% glycerol and stored at −70° C.
Measure of enzyme activity: Tyrosine protein kinase assays with either purified GST-wtRET or GST-RET-Men2B protein are carried out in a final volume of 30 μL containing 15 ng of either GST-RET or GST-RET-Men2B protein, 20 mM Tris-HCl, pH 7.5, 1 mM MnCl2, 10 mM MgCl2, 1 mM DTT, 3 μg/mL poly(Glu, Tyr) 4:1, 1% DMSO, 2.0 μM ATP (γ-[^33P]-ATP 0.1 μCi). The activity is assayed in the presence or absence of inhibitors, by measuring the incorporation of ^33P from [γ^33P] ATP into poly(Glu, Tyr) 4:1. […] Subsequently, 40 μL of the reaction mixture are transferred onto Immobilon-PVDF membrane (Millipore) previously soaked for 5 minutes with methanol, rinsed with water, then soaked for 5 minutes with 0.5% H3PO4 and mounted on vacuum manifold with disconnected vacuum source. After spotting all samples, vacuum is connected and each well rinsed with 200 μL 0.5% H3PO4. Membranes are removed and washed 4× on a shaker with 1.0% H3PO4, once with ethanol. Membranes are counted after drying at ambient temperature, mounting in Packard TopCount 96-well frame, and addition of 10 μl/well of Microscint™ (Packard). […] One unit of protein kinase activity is defined as 1 nmole of ^33P transferred from [γ^33P] ATP to the substrate protein/minute/mg of protein at 37° C.
Take `Nc1cc(Oc2ccc(NC(=O)Nc3cc(CN4CCC4)cc(C(F)(F)F)c3)cc2)ncn1` [Example 4, N-[4-(6-Amino-pyrimidin-4-yloxy)-phenyl]-N′-(3-azetidin-1-ylmethyl-5-trifluoromethyl-phenyl)-urea]: the IC50 was 83 nM.

Regarding `CNc1cc(Oc2ccc(NC(=O)Nc3cc(CN4CCN(C(C)C)CC4)cc(C(F)(F)F)c3)cc2)ncn1` [Example 6, N-[4-(6-Methylamino-pyrimidin-4-yloxy)-phenyl]-N′-[3-(4-isopropylpiperazin-1-ylmethyl)-5-trifluoromethyl-phenyl]-urea], 960 nM corresponded to half-maximal inhibition (IC50).

In turn, `CC(C)N1CCN(Cc2ccc(NC(=O)Nc3ccc(Oc4cc(N)ncn4)cc3)cc2C(F)(F)F)CC1` [Example 19, N-[4-(6-Amino-pyrimidin-4-yloxy)-phenyl]-N′-[4-(4-isopropylpiperazin-1-ylmethyl)-3-trifluoromethyl-phenyl]-urea] yielded an IC50 of 550 nM. This IC50 is about 1.7-fold lower than that of the compound before.

`CC(C)(C)N1CCN(Cc2ccc(NC(=O)Nc3ccc(Oc4ccnc(N)n4)cc3)cc2C(F)(F)F)CC1` [Example 50]: it took 560 nM to reach half-maximal inhibition (IC50).

On to `Cc1ncn(Cc2ccc(NC(=O)Nc3ccc(Oc4ccnc(N)n4)cc3)cc2C(F)(F)F)c1C` [Example 51a.1, 1-[4-(2-Amino-pyrimidin-4-yloxy)-phenyl]-3-(4-(4,5-dimethyl-imidazol-1-ylmethyl)-3-trifluoromethyl-phenyl]-urea], for which the IC50 was 850 nM.

The compound `CN1CCN(Cc2ccc(NC(=O)Nc3ccc(Oc4ccnc(N)n4)cc3)cc2C(F)(F)F)CC1` [Example 52a, 1-[4-(2-amino-pyrimidin-4-yloxy)-phenyl]-3-[4-(4-methylpiperazin-1-ylmethyl)-3-trifluoromethyl-phenyl]-urea] had an IC50 of 180 nM.

The compound `CCN1CCN(Cc2ccc(NC(=O)Nc3ccc(Oc4ccnc(N)n4)cc3)cc2C(F)(F)F)CC1` [Example 52c, 1-[4-(2-Amino-pyrimidin-4-yloxy)-phenyl]-3-[4-(4-ethyl-piperazin-1-ylmethyl)-3-trifluoromethyl-phenyl]-urea] came in with an IC50 of 310 nM. This IC50 is about 1.7-fold higher than that of the compound before.

The compound `CNc1nccc(Oc2ccc(NC(=O)Nc3cc(N4CCN(C)CC4)cc(C(F)(F)F)c3)cc2)n1` [Example 53b, 1-[4-(2-Methylamino-pyrimidin-4-yloxy)-phenyl]-3-[3-(4-methyl-piperazin-1-yl)-5-trifluoromethyl-phenyl]-urea] returned an IC50 of 450 nM.

As to `CNc1nccc(Oc2ccc(NC(=O)Nc3ccc(N4CCN(C)CC4)c(C(F)(F)F)c3)cc2)n1` [Example 53d, 1-[4-(2-Methylamino-pyrimidin-4-yloxy)-phenyl]-3-[4-(4-methyl-piperazin-1-yl)-3-trifluoromethyl-phenyl]-urea], 450 nM corresponded to half-maximal inhibition (IC50).

Usually IC50 stands for the concentration that gives 50% inhibition. A lower IC50 goes with inhibition by little substance.

The values are drawn from patent US20080312192A1, “Diaryl Urea Derivatives in the Treatment of Protein Kinase Dependent Diseases” (priority 2003, published 2008).
